# Values quoted from earlier work, collected in patent publication US9442092B2, “Methods for treatment of autism” (priority 2011, dated 2016).
# Tests used:
# [1] = in vivo
SMILES,Increase of HIV levels (HIV) [%],Association with Autism [1]
COc1cc2c(c3oc(=O)c4c(c13)CCC4=O)[C@@H]1C=CO[C@@H]1O2 [Aflatoxin],500,
CC(C)Cc1ccc(C(C)C(=O)O)cc1 (stereo not drawn) [Ibuprofen],,no association
"CN1C(=O)[C@]23CC4=CC=C[C@H](O)[C@H]4N2C(=O)[C@@]1(CO)SS3 [gliotoxin, Gliotoxin]",500,
